The nature of data set [1]: AlamarBlue cell viability assay, non-cancerous colon FHC cells. As to conditions: human.
Data set [2] is described as follows: AlamarBlue cell viability assay, non-cancerous intestine FHs-74Int cells. As to conditions: human. In general terms: Alamar Blue is a resazurin reagent that responds to reducing activity.
Data set [3] deals with HCT-116 cells. In words: AlamarBlue cell viability assay, HCT-116 colon cancer cells. The class given is cell-based, human. As to conditions: for Average Selectivity Index: CC50 non-cancer cells (FHC, FHs 74Int) compared to EC50 HCT-116; for EC50: AlamarBlue, 48 h with compound, read-out: Human Cell Viability EC50 Colon Cancer (HCT 116).
Data set [4] deals with DLD-1 cells. In words: AlamarBlue cell viability assay, DLD-1 colon cancer cells. It is filed as cell-based. As to conditions: Homo sapiens, 48 h with compound, ^BP = curve baseline plateaued between ~10-20%, read-out: Human Cell Viability EC50 Colon Cancer (DLD1).
For data set [5], the system named is HT-29 cells. The data set is described as follows: AlamarBlue cell viability assay, HT-29 colon cancer cells. The class given is cell-based. The following applies: Homo sapiens, 48 h with compound, ^BP = curve baseline plateaued between ~10-20%.
Where [6] appears, read: FHC non-cancerous colon cells, Human Cell Viability CC50 Colon (FHC), non-cancerous colon cells, AlamarBlue, 48 h.
Where [7] appears, read: FHs-74Int non-cancerous intestine cells, Human Cell Viability CC50 Intestine (FHs 74Int), non-cancerous intestine cells, AlamarBlue, 48 h.

The structures appear in SMILES notation. Read-outs that look alike come from different tables or passages of the source. A value given as a limit tells only on which side of the number the result lay.

For orientation: CC50 means the concentration giving 50% cytotoxicity. A lower CC50 goes with harm at low concentration. What is called EC50 is the midpoint of the concentration-response curve. Regarding `O=C1CN(/N=C/c2ccc([N+](=O)[O-])o2)C(=O)N1` [Nitrofurantoin (Nft), Nitrofurantoin, reference compound], the CC50 at 48 h in data set [1] (setting [6]) and in data set [2] (setting [7]) was more than 100 µM each time. Moreover, in data set [3], the “Average Selectivity Index” value stood at 1.1. In addition, the EC50 in data set [3] (Homo sapiens, HCT-116, 48 h) was determined as 95 µM.
For the compound `O=C(N/N=C/c1ccc([N+](=O)[O-])o1)c1cccs1` [Compound 120], the CC50 at 48 h in data set [1] (setting [6]) was found to be 84 µM; in data set [2] (setting [7]), 50 µM. In addition, the “Average Selectivity Index” value in data set [3] is reported as 7.4. Besides, the EC50 in data set [3] (Homo sapiens, HCT-116, 48 h) was 9.1 µM; in data set [4], 14 µM; in data set [5], 3.6 µM.
As for `O=C(N/N=C/c1ccc(O)c2ncccc12)c1ccc(Cl)s1` [Compound 136], the figures for the CC50 at 48 h in data set [1] (setting [6]) and in data set [2] (setting [7]) were 25 µM and 42 µM, respectively. Also, the “Average Selectivity Index” value in data set [3] is recorded as 8.8. Also, the EC50 is 3.8 µM in data set [3] (Homo sapiens, HCT-116, 48 h); 3.9 µM in data set [4]; 3.2 µM in data set [5].
For the compound `O=C(N/N=C/c1ccc(O)c2ncccc12)c1ccccc1Oc1ccccc1` [Compound 142], the half-maximal cytotoxic concentration (CC50) at 48 h in data set [1] (setting [6]) came to 71 µM; in data set [2] (setting [7]), 87 µM. The “Average Selectivity Index” value in data set [3] came to 13. For the same compound, the half-maximal effective concentration (EC50) in data set [3] (Homo sapiens, HCT-116, 48 h) was found to be 6.3 µM; in data set [4], 1.6 µM; in data set [5] it was 3.7 µM.
Consider `O=C(N/N=C/c1ccc([N+](=O)[O-])o1)c1ccc(O)cc1` [Nifuroxazide (Nfz), Nifuroxazide, reference compound], for which the figures for the CC50 at 48 h in data set [1] (setting [6]) and in data set [2] (setting [7]) were 66 µM and 62 µM, respectively. The “Average Selectivity Index” value in data set [3] worked out at 7.7. Also, the EC50 in data set [3] (Homo sapiens, HCT-116, 48 h) is 8.3 µM; in data set [4] it was 1.5 µM; in data set [5], 3.5 µM.
In the case of `O=C(N/N=C/c1ccc(O)c2ncccc12)c1cccs1` [Compound 135], the values for the CC50 at 48 h in data set [1] (setting [6]) and in data set [2] (setting [7]) were 85 µM and 86 µM, respectively. In data set [3], the “Average Selectivity Index” value stood at 27. In addition, the EC50 in data set [3] (Homo sapiens, HCT-116, 48 h) amounted to 3.2 µM; in data set [4], 2.3 µM; in data set [5], 3.6 µM.
Regarding `COc1cc(NC(C)CCCN)c2ncccc2c1` (centres unmarked) [Compound 71, Primaquine, reference compound], the values for the CC50 at 48 h in data set [1] (setting [6]) and in data set [2] (setting [7]) were 77.4 µM and 56.6 µM, respectively.
In the case of `O=C(N/N=C/c1ccc([N+](=O)[O-])o1)c1ccccc1` [Compound 122], the CC50 at 48 h was more than 100 µM in data set [1] (setting [6]) and 71 µM in data set [2] (setting [7]). Further, the “Average Selectivity Index” value in data set [3] is on record as 6.5. The concentration for a half-maximal effect (EC50) in data set [3] (Homo sapiens, HCT-116, 48 h) was determined as 13 µM; in data set [4], 18 µM; in data set [5] it was 4.9 µM.
With `O=C(N/N=C/c1ccc(O)c2ncccc12)c1ccccc1` [Compound 137], the cytotoxic concentration (CC50) at 48 h came to 74 µM in data set [1] (setting [6]) and 57 µM in data set [2] (setting [7]). The “Average Selectivity Index” value in data set [3] worked out at 11. Also, the EC50 came out at 6.1 µM in data set [3] (Homo sapiens, HCT-116, 48 h); 2.8 µM in data set [4]; 2.5 µM in data set [5].
As for `COc1ccc(C(=O)N/N=C/c2ccc([N+](=O)[O-])o2)cc1` [Compound 124], the cytotoxic concentration (CC50) at 48 h in data set [1] (setting [6]) was more than 100 µM; in data set [2] (setting [7]), 47 µM. Besides, in data set [3], the “Average Selectivity Index” value amounted to 16.1. For the same compound, the EC50 stood at 4.6 µM in data set [3] (Homo sapiens, HCT-116, 48 h); 7.6 µM in data set [4]; 2.7 µM in data set [5].
As to `CN(C)c1ccc2nc3ccc(=[N+](C)C)cc-3sc2c1` [Compound 74, Methylene blue trihydrate, reference compound], the figures for the CC50 at 48 h in data set [1] (setting [6]) and in data set [2] (setting [7]) were 31.3 µM and 23.4 µM, respectively. The EC50 is 2.3 µM in data set [3] (trihydrate) and 2.3 to 11 µM in data set [3] (Homo sapiens, HCT-116, 48 h). Besides, the “Average Selectivity Index” value in data set [3] (trihydrate) is 11.9.
As for `O=C(N/N=C/c1ccc([N+](=O)[O-])o1)c1ccncc1` [Compound 123], the CC50 at 48 h in data set [1] (setting [6]) was 70 µM; in data set [2] (setting [7]), 75 µM. The “Average Selectivity Index” value in data set [3] is listed as 2.6. Also, the EC50 in data set [3] (Homo sapiens, HCT-116, 48 h) amounted to 28 µM.
For `O=C(N/N=C/c1ccc(O)c2ncccc12)c1ccncc1` [Compound 138] the same measures were more than 100 µM, 69 µM, 1.8 and 48 µM.
The matching figures for `COc1ccc(C(=O)N/N=C/c2ccco2)cc1` [Compound 158]: more than 100 µM, more than 100 µM, 1.0 and more than 100 µM.
With `CC1CS(=O)(=O)CCN1/N=C/c1ccc([N+](=O)[O-])o1` (centres unmarked) [Nifurtimox (Nfx - 106), Nifurtimox, reference compound], the CC50 at 48 h in data set [1] (setting [6]) and in data set [2] (setting [7]) was more than 100 µM each time. Further, the “Average Selectivity Index” value in data set [3] came to 1.0. The EC50 in data set [3] (Homo sapiens, HCT-116, 48 h) was more than 100 µM.
Regarding `O=C(N/N=C/c1ccc([N+](=O)[O-])o1)c1ccccc1Oc1ccccc1` [Compound 127], the CC50 at 48 h was determined as 49 µM in data set [1] (setting [6]) and 55 µM in data set [2] (setting [7]). The EC50 turned out to be 11 µM in data set [3] (Homo sapiens, HCT-116, 48 h) and 26 µM in data set [4].
In the case of `CC(=O)O[C@H]1C(=O)[C@@]2(C)[C@H]([C@H](OC(=O)c3ccccc3)[C@]3(O)C[C@H](OC(=O)[C@H](O)[C@@H](NC(=O)c4ccccc4)c4ccccc4)C(C)=C1C3(C)C)[C@]1(OC(C)=O)CO[C@@H]1C[C@@H]2O` [Compound 70, Paclitaxel, reference compound], the CC50 at 48 h in data set [1] (setting [6]) and in data set [2] (setting [7]) was more than 100 µM each time. Also, the “Average Selectivity Index” value in data set [3] came out at 2222.2. Further, the EC50 in data set [3] (Homo sapiens, HCT-116, 48 h) was less than 0.045 µM.
As for `CC(C)n1c(/C=C/C(O)CC(O)CC(=O)O)c(-c2ccc(F)cc2)c2ccccc21` (centres unmarked) [Compound 82, Fluvastatin sodium, reference compound], the CC50 at 48 h in data set [1] (setting [6]) and in data set [2] (setting [7]) was more than 100 µM in each case. Also, the “Average Selectivity Index” value in data set [3] came out at 11.6.
For the compound `CC[n+]1c(-c2ccccc2)c2cc(N)ccc2c2ccc(N)cc21` [Compound 73, Ethidium bromide, reference compound], the CC50 at 48 h in data set [1] and in data set [2] was more than 100 µM throughout.
Turning to `O=Cc1ccc([N+](=O)[O-])o1` [Compound 160], the CC50 at 48 h in data set [1] (setting [6]) and in data set [2] (setting [7]) was 53 µM throughout. In addition, the “Average Selectivity Index” value in data set [3] worked out at 1.9. Also, the EC50 in data set [3] (Homo sapiens, HCT-116, 48 h) turned out to be 29 µM.
With `O=C1CN(/N=C/c2ccc(O)c3ncccc23)C(=O)N1` [Compound 133], the CC50 at 48 h in data set [1] (setting [6]) and in data set [2] (setting [7]) was more than 100 µM in each case. The “Average Selectivity Index” value in data set [3] was 2.6. The EC50 in data set [3] (Homo sapiens, HCT-116, 48 h) was 39 µM.
For `CN(C)c1ccc(C(=O)N/N=C/c2ccc(O)c3ncccc23)cc1` [Compound 140], the results for the CC50 at 48 h in data set [1] (setting [6]) and in data set [2] (setting [7]) were 35 µM and 42 µM, respectively. In addition, the “Average Selectivity Index” value in data set [3] came out at 8.8. Moreover, the 50% effective concentration (EC50) in data set [3] (Homo sapiens, HCT-116, 48 h) is 4.4 µM; in data set [5], 2.4 µM.
`O=Cc1ccc(O)c2ncccc12` [Compound 159]: the CC50 at 48 h is 4.4 µM in data set [1] (setting [6]) and 15 µM in data set [2] (setting [7]). The “Average Selectivity Index” value in data set [3] was 1.6. Further, the EC50 in data set [3] (Homo sapiens, HCT-116, 48 h) is 6.2 µM.
As for `O=[N+]([O-])c1ccc(O)c2ncccc12` [Nitroxoline, reference compound], the values for the CC50 at 48 h in data set [1] (setting [6]) and in data set [2] (setting [7]) were 28 µM and 41 µM, respectively. In data set [3], the “Average Selectivity Index” value is listed as 1.6. Besides, in data set [3] (Homo sapiens, HCT-116, 48 h), the EC50 turned out to be 22 µM.
In the case of `COc1ccc(C(=O)NN)cc1` [Compound 161], the CC50 at 48 h in data set [1] (setting [6]) and in data set [2] (setting [7]) was more than 100 µM throughout. In data set [3], the “Average Selectivity Index” value was 1.0. Also, in data set [3] (Homo sapiens, HCT-116, 48 h), the EC50 is more than 100 µM.

(Values after US20250319056A1, “METHODS FOR TREATING CANCER” (THE TRUSTEES OF INDIANA UNIVERSITY, priority 2024, published 2025).)
